The nature of series [1]: Single oral dose toxicity study. The following applies: 500 mg/kg oral. Format: in vivo, Sprague Dawley rats.
The nature of series [2]: 2-week repeated oral DRF study. Format: in vivo. The following applies: 500 mg/kg oral.
The next series deals with CSF1R (Homo sapiens, UniProt P07333). The series is described as follows: Eurofins kinase assay.
The target of a further series is PKCβII(h) (Homo sapiens, UniProt P05771). The series is described as follows: Eurofins kinase assay.
Sequence of PKCβII(h) (P05771 1-673 isoform P05771-2): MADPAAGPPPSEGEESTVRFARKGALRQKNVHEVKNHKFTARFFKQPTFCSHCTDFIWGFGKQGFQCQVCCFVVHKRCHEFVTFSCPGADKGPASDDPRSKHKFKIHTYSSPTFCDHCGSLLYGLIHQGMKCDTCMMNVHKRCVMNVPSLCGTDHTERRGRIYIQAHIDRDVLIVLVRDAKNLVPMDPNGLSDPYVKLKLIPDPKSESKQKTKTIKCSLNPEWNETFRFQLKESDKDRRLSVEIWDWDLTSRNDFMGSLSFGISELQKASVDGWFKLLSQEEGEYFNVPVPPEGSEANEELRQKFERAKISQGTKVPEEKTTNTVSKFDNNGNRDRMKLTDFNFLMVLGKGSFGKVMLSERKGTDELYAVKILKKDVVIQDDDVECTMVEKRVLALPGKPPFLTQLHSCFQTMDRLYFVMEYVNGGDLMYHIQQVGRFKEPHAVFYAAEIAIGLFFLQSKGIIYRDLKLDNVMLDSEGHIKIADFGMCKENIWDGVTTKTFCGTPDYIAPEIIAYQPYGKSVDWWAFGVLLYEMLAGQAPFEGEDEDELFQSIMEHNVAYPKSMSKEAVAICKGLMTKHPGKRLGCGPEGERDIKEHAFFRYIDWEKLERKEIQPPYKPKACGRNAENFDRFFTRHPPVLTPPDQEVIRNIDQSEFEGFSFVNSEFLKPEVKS
In a further series the target is MST2(h) (Homo sapiens, UniProt Q13188). The series is described as follows: Eurofins kinase assay.
Sequence of MST2(h) (Q13188 whole entry): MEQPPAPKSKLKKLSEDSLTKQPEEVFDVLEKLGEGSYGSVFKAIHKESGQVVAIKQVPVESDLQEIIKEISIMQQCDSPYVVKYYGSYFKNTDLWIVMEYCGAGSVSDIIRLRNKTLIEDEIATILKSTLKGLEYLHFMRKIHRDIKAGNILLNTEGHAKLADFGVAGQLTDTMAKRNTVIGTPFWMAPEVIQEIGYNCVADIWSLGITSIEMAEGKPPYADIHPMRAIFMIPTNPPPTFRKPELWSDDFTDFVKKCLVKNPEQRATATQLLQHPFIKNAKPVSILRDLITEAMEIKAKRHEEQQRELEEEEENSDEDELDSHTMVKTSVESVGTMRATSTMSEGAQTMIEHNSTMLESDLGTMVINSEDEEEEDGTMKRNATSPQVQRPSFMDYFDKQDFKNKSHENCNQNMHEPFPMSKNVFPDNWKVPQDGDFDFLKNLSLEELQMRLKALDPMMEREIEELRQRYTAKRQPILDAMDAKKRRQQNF
The target of another series is p70S6K(h) (Homo sapiens, UniProt P23443). The experiment in a line: Eurofins kinase assay.
Sequence of p70S6K(h) (P23443 whole entry): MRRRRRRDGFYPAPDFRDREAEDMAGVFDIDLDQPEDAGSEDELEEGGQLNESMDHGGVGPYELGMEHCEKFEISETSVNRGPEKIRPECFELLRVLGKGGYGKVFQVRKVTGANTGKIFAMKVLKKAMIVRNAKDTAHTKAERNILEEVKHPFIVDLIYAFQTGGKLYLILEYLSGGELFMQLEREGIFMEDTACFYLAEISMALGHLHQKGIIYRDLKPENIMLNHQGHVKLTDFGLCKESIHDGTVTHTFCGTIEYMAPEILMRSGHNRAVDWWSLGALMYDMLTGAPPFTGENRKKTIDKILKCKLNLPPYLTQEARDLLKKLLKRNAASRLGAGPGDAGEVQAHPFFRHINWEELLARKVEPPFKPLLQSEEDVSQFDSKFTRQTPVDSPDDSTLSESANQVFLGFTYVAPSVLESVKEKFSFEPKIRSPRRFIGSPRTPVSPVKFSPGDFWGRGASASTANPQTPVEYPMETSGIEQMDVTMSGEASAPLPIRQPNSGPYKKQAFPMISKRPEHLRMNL
Another series concerns the target PKD2(h) (Homo sapiens, UniProt Q9BZL6). The experiment in a line: Eurofins kinase assay.
The target of another series is PDK1(h) (Homo sapiens, UniProt O15530). The experiment in a line: Eurofins kinase assay.
Sequence of PDK1(h) (O15530 whole entry): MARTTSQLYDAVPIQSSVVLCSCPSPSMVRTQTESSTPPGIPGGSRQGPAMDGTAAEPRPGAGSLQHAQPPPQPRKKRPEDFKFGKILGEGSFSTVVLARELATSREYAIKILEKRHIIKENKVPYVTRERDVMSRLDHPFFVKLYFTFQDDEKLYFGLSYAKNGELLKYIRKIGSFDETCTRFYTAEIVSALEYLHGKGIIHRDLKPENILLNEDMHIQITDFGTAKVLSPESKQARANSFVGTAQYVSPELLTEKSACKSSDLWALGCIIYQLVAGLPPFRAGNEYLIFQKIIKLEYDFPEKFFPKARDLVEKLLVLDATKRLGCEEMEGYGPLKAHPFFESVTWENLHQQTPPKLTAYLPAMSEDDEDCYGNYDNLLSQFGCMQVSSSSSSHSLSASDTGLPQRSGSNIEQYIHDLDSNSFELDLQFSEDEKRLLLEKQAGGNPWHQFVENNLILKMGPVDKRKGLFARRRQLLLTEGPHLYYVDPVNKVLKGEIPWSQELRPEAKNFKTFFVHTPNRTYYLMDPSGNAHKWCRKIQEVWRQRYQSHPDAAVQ
A further series concerns the target PKCε(h) (Homo sapiens, UniProt Q02156). The experiment in a line: Eurofins kinase assay.
The target in another series is SGK(h) (Homo sapiens, UniProt O00141). The experiment in a line: Eurofins kinase assay.

Sequence of CSF1R (P07333 20-972): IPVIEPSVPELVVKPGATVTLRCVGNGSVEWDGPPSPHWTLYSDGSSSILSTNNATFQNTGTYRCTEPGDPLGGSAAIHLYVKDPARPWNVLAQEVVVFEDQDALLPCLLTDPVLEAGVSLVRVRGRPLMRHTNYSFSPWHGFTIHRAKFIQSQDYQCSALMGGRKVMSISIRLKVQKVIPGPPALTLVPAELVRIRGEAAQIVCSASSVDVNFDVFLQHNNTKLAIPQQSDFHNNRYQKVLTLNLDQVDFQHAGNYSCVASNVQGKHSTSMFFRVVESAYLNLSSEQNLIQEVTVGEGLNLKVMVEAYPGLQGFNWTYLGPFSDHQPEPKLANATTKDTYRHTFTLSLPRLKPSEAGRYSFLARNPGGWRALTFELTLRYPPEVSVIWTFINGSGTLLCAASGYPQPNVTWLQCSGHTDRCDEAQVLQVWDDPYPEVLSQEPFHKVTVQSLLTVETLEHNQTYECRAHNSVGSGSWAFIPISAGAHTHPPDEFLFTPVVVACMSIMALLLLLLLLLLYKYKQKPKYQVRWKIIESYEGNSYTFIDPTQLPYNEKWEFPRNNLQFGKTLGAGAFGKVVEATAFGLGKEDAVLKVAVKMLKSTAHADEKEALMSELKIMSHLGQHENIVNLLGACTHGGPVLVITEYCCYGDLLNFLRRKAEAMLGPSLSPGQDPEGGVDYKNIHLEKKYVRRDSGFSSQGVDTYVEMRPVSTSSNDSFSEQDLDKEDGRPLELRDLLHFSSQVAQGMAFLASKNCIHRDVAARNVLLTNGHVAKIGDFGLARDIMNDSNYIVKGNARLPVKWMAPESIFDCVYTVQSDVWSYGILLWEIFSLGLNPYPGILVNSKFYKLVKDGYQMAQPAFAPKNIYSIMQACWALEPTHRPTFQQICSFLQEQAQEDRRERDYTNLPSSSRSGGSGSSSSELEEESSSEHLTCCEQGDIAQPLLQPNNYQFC
Sequence of PKCε(h) (Q02156 whole entry): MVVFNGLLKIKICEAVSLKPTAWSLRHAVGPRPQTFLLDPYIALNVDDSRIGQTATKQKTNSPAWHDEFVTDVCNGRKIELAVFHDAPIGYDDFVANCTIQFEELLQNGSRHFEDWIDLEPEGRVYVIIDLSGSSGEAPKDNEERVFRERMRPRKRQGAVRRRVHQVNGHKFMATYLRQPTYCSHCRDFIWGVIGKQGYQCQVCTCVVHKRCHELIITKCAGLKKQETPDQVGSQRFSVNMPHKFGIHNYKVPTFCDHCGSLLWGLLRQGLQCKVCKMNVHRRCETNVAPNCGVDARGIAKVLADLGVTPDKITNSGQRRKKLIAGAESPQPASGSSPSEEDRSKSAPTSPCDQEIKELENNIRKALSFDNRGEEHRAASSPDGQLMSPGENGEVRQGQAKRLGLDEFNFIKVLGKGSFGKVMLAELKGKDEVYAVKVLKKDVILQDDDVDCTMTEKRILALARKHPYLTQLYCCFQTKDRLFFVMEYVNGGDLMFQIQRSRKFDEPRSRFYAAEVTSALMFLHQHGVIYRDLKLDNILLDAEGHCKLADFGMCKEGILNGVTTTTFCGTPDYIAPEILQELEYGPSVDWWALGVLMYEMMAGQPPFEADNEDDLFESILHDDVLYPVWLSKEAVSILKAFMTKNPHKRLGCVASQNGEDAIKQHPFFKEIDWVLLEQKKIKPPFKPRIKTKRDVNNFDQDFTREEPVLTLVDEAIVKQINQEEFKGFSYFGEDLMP
Sequence of PKD2(h) (Q9BZL6 whole entry): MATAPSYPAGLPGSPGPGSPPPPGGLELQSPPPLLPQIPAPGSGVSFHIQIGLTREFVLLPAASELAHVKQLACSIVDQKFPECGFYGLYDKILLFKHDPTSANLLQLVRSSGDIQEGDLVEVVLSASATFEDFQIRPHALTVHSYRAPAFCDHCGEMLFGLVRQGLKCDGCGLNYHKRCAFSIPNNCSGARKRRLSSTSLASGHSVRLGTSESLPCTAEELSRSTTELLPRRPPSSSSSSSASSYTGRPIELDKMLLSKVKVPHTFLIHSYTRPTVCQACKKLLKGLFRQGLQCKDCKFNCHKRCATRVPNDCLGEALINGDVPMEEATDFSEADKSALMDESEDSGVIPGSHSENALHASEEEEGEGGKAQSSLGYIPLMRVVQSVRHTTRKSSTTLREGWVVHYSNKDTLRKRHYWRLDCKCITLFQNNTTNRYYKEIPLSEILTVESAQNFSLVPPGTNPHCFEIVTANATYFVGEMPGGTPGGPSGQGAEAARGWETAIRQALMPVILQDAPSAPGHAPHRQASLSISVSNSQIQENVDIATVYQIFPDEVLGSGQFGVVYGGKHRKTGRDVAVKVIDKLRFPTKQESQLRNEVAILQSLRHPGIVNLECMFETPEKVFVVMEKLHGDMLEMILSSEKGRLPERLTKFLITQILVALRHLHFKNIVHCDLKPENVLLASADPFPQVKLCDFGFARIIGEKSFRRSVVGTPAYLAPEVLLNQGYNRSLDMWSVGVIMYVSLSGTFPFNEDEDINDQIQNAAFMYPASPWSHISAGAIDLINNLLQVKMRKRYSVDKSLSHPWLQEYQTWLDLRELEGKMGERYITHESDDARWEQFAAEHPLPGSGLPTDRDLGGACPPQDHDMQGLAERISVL

For orientation: IC50 means the concentration that gives 50% inhibition. Read a high IC50 as weaker potency in that assay. In general, inhibition refers to the relative decrease from the control value, in per cent. In the case of `O=C(Nc1cc(Nc2ncccc2-c2ncnc3[nH]cnc23)ccc1F)c1cc(C(F)(F)F)cc(C(F)(F)F)c1` [SJ-C1044, N-(5-(3-(9H-purin-6-yl)pyridin-2-ylamino)-2-fluorophenyl)-3,5-bis(trifluoromethyl)benzamide], the “single oral dose toxicity” value in [1] was “no respiratory effects or signs of toxicity”. Besides, in series [2], the “2-week repeated oral toxicity” value is given as “no indications of toxicity”. In addition, half-maximal inhibition at CSF1R (IC50) was put at 235 nM. Moreover, the inhibition at 10 µM on CSF1R amounted to 70%; on PKCβII(h), 10%; on MST2(h), 9%; at p70S6K(h), 8%; against PKD2(h) it was 3%; on PDK1(h) it was 0%. The inhibition at 10 µM is -5% against PKCε(h) and -34% against SGK(h).

These data come from article PMC10378394 (Current Issues in Molecular Biology, 2023).
